# According to paper PMC7590512, “Lysosomal cathepsin creates chimeric epitopes for diabetogenic CD4 T cells via transpeptidation” (The Journal of Experimental Medicine, 2020):
# How the values were obtained:
# BDC-10.1 T cell = conditions: for stimulation of BDC-10.1 (IL-2): M12.C3.g7 APCs, peptides at the concentrations used in the digests, average of three experiments
# Description: (§1) For APCs, we used the IA^g7-expressing M12.C3 B cell lymphoma (M12.C3.g7; [Carrasco-Marin et al., 1996]). Four T cell hybridomas were used in various stimulation assays. BDC-2.5 and BDC-10.1 were provided by Dr. Kathryn Haskins (University of Colorado Medical School, Aurora, CO). G7W120 was produced in this laboratory ([Jin et al., 2015]). The insulin B:9-23 reactive AS91 T cell hybridoma ([Levisetti et al., 2007]) was provided by Dr. Emil Unanue (Washington University, St. Louis, MO). T cell hybridomas (10^5 cells) were mixed with either 10^5 paraformaldehyde-fixed APCs or 10^5 unfixed APCs and cultured overnight with various concentrations of synthetic peptide or volumes of a pH-adjusted cathepsin digestion mixture in a final volume of 250 µl. Secreted IL-2 was assayed with a functional assay where the growth and survival of an HT-2 IL-2–dependent cell line was quantified using the dye MTT ([White et al., 2000]) and reported as units per milliliter based on comparison to an IL-2 standard.
# [1] = system: BDC-2.5, BDC-10.1, and G7W-120 T cells
# ChgA-specific T cells = conditions: words; ref Stadinski et al., 2010a; cited from earlier work
# Cat-L [2] = conditions: estimated by comparison with control peptide LQTLALWSRMDQL; C-peptide plus WE14 with Cat-L
# Description: as §1
# livCat-L and recCat-L = conditions: MS/MS
# Cat-L [3] = system: Cat-L
substance,measurement,setting,value
WSRMDQLAKELTAE [WE14],stimulation of BDC-10.1 (IL-2),BDC-10.1 T cell,neither C-peptide nor WE14 alone had any activity
same,stimulation of three T cells (IL-2),[1],inactive at the concentrations tested here
same,agonism for BDC-2.5 and other ChgA-specific T cells,ChgA-specific T cells,weak agonist
C-peptide,C-peptide converted to a stimulatory peptide,Cat-L [2],2.5–5%
same,stimulation of BDC-10.1 (IL-2),BDC-10.1 T cell,neither C-peptide nor WE14 alone had any activity
same,cleavage of mouse C-peptide,livCat-L and recCat-L,The cleavage after TLAL was found in both digests
LQTLALWSRMDQL,stimulation of BDC-10.1 (IL-2),BDC-10.1 T cell,highly stimulatory
RKLLW-NH2,inhibition of BDC-10.1 response to 0.17 µM LQTLALWSRMDQL by carried-over inhibitor,BDC-10.1 T cell; control for nonspecific inhibition of the stimulation assay,not inhibitory
same,"inhibition of generation of the active peptide, words",Cat-L [3]; increasing inhibitor concentrations (44-350 µM),inhibited by RKLLW-NH2 in a dose-dependent manner
same,inhibition of generation of the active peptide by Cat-L,"Cat-L [3]; inhibitor at same concentration as C-peptide substrate, livCat-L or recCat-L, preincubated 30 min on ice",~50%
